US11428693B2, “Method of high throughput screening of chemical compounds suppressing nucleolar hypertrophy” (Baylor College of Medicine, priority 2017, dated 2022)
Read-outs that look alike come from different tables or passages of the source. Where a SMILES comes first, the peptide text is derived from it. The star is where a group is joined. Cbz = O=C(OCc1ccccc1)*

Legend:
[1] = tested on: HCT-15 cells; test: Cell survival assay using MTT (toxicity study, FIG. 7); details: for toxicity (cell survival, MTT): at the applied concentrations, compounds dissolved in DMSO; for cellular proliferation: prolonged 24-hour treatments
Description: (§1) To further assess protein biosynthesis in the perinuclear area and ribosome biogenesis, several chemical agents were tested on cellular growth and survival.
(§2) All the tested compounds were dissolved in dimethylsulfoxide (DMSO).
(§3) The human colorectal adenocarcinoma cell lines: HCT-15 was purchased from ATCC. Cultures of cells maintained in DMEM/F12 medium containing 10% FBS and antibiotics, at 37° C. with 5% CO2. For cell treatments, cells were grown at 80% confluence in complete medium.

[2] = tested on: HCT-15 cells; test: GFP-L7a expression in treated HCT-15 cells (FIG. 8); assay type: cell-based, human
Excerpt: FIG. 8 contains pictures of cells. HCT-15 cells, grown on 35 mm glass bottom dishes, were transfected with the GFP-L7a vector pCMV6-AC-GFP to express GFP-L7a protein.

[3] = tested on: HCT-15 cells
Description: as §1, §2, §3

[4] = HCT-15 cells transfected with GFP-L7a vector pCMV6-AC-GFP

CCc1cncnc1N1CCN(Cc2nc3cc(C(F)(F)F)ccc3[nH]2)CC1 [PF4708671, 2-((4-(5-Ethylpyrimidin-4-yl)piperazin-1-yl)methyl)-5-(trifluoromethyl)-1H-benzo[d]imidazole]
toxicity (cell survival, MTT) [1]: no toxicity
nucleolar hypertrophy (GFP-L7a) [2, 4]: induced
perinuclear protein synthesis (GFP-L7a) [2, 4]: induced

CC(C)n1nc(-c2cc3cc(O)ccc3[nH]2)c2c(N)ncnc21 [pp242, 2-(4-amino-1-isopropyl-1H-pyrazolo[3,4-d]pyrimidin-3-yl)-1H-indol-5-ol]
toxicity (cell survival, MTT) [3]: no toxicity
perinuclear protein synthesis (GFP-L7a) [2]: induced

O=C1Nc2cc(Br)ccc2/C1=C1/Nc2ccccc2/C1=N\O [Bio, (2′Z,3′E)-6-Bromoindirubin-3′-oxime]
toxicity (cell survival, MTT) [3]: more toxic than the other compounds
nucleolar hypertrophy (GFP-L7a) [2, 4]: induced
perinuclear protein synthesis (GFP-L7a) [2, 4]: induced

CC(C)C[C@@H](C=O)NC(=O)[C@H](CC(C)C)NC(=O)[C@H](CC(C)C)NC(=O)OCc1ccccc1 [MG132, Benzyl N-[(2S)-4-methyl-1-[[(2S)-4-methyl-1-[[(2S)-4-methyl-1-oxopentan-2-yl]amino]-1-oxopentan-2-yl]amino]-1-oxopentan-2-yl]carbamate] (Cbz-Leu-Leu-Leu-aldehyde)
toxicity (cell survival, MTT) [1]: no toxicity
cellular proliferation [1]: inhibited cellular proliferation
nucleolar hypertrophy (GFP-L7a) [2, 4]: induced
perinuclear protein synthesis (GFP-L7a) [2, 4]: induced

C=C(C)[C@H]1Cc2c(ccc3c2O[C@@H]2COc4cc(OC)c(OC)cc4[C@@H]2C3=O)O1 [Rotenone, (2R,6aS,12a5)-1,2,6,6a,12,12a-hexahydro-2-isopropenyl-8,9-dimethoxychromeno[3,4-b]furo(2,3-h)chromen-6-one]
toxicity (cell survival, MTT) [3]: no toxicity
cellular proliferation [1]: inhibited cellular proliferation
nucleolar hypertrophy (GFP-L7a) [2, 4]: induced
perinuclear protein synthesis (GFP-L7a) [2, 4]: induced

COC1=C2C[C@@H](C)C[C@H](OC)[C@H](O)[C@@H](C)/C=C(\C)[C@H](OC(N)=O)[C@@H](OC)/C=C\C=C(/C)C(=O)NC(=CC1=O)C2=O [Geldanamycin, (4E,6Z,8S,9S,10E,12S,13R,14S,16R)-13-hydroxy-8,14,19-trimethoxy-4,10,12,16-tetramethyl-3,20,22-trioxo-2-azabicyclo[16.3.1]docosa-1(21),4,6,10,18-pentaen-9-yl carbamate]
toxicity (cell survival, MTT) [1]: no toxicity
cellular proliferation [1]: inhibited cellular proliferation
nucleolar hypertrophy (GFP-L7a) [2, 4]: induced
perinuclear protein synthesis (GFP-L7a) [2, 4]: induced
